From ChEMBL document CHEMBL1201862, “PubChem BioAssay data set” (2004)
Active and inactive are the calls of the source.

What was measured:
[1] = molecular target: Induced myeloid leukemia cell differentiation protein Mcl-1 (Homo sapiens, UniProt Q07820); assay type: functional
[2] = system: H4; assay: Luminescence Cell-Based Dose Response HTS to Identify Activators of 5'UTR Stem-Loop Driven Prion Protein mRNA Translation in H4 Neuroglioblastoma Cells. [Related pubchem assays: 1829 (Project Summary), 1814 (Primary HTS)]; assay type: functional; settings: Homo sapiens
[3] = Luminescence Cell-Based Dose Response HTS to Identify Activators of Luciferase Translation or Activity in H4 […] Cells. [Related pubchem assays: 1829 (Project Summary), 1814 (Primary HTS)]; assay type: functional
[4] = molecular target: T1, Calpain-2 catalytic subunit (Sus scrofa, UniProt P43367); assay: m-calpain protease blockers, concentration series – biochemical, fluorogenic peptide substrate, dose response (AID 1420); assay type: functional
T1 sequence (P43367 whole entry): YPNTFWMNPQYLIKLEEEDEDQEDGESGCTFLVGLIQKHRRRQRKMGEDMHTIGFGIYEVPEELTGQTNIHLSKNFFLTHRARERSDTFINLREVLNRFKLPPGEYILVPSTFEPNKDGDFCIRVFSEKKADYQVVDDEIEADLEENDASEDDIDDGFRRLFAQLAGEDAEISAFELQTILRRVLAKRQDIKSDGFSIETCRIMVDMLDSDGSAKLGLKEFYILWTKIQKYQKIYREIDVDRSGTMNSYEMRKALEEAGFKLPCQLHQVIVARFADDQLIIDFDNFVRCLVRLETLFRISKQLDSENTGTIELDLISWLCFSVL

[5] = molecular target: FAD-linked sulfhydryl oxidase ALR (Homo sapiens, UniProt P55789); assay: ALR-catalysed DTT oxidation blockers – biochemical, H2O2 detection, luminescence, cherry-pick, dose response (AID 493248)
[6] = cells; assay type: functional
[7] = molecular target: Large T antigen (Simian virus 40, UniProt P03070); assay type: functional, Betapolyomavirus macacae;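 also: Confirmatory-stage PubChem screen for compounds that inhibit SV40 T antigen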
[8] = molecular target: Genome polyprotein (dengue virus type 2, UniProt P29990); assay: flavivirus cap methylation enzyme inhibition – biochemical, confirmation dose response, primary screen (AID 588689); assay type: functional
[9] = system: H9c2; assay: cells; assay type: functional, cell-based; settings: Rattus norvegicus, H9c2, Myocardium;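 also: confirmatory concentration-response retest of ultra-high-throughput screening hits for modulation of myocardial damage; cell death induced by hydrogen peroxide oxidative stress; compound pretreatment for 60 min then peroxide exposure for 2 h; potency is for protecting the cells against peroxide damage rather than for killing them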
[10] = molecular target: T2, Leucine aminopeptidase (Plasmodium falciparum 3D7, UniProt Q8IL11); assay: P. falciparum M17LAP inhibitors, primary screen, biochemical, fluorogenic H-Leu-NHMec substrate, 1536-well (AID 1619); assay type: functional
T2 sequence (Q8IL11 whole entry): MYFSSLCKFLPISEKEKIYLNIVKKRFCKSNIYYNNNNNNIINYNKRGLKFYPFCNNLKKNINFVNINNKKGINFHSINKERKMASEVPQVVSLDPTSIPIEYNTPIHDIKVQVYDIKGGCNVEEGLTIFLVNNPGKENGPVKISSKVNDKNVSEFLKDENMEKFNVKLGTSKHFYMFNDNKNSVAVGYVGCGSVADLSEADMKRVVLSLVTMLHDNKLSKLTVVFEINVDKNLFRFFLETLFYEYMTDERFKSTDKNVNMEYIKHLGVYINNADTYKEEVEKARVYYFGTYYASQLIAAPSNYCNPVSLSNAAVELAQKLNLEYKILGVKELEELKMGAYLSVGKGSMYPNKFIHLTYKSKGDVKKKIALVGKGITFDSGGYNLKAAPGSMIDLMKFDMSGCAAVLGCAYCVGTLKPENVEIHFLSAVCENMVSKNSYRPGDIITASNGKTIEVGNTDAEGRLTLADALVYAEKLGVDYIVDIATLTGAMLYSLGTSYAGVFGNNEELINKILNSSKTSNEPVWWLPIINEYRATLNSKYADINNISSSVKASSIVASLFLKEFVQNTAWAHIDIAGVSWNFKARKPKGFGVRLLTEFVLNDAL

[11] = alpha-synuclein stem-loop luciferase translation blockers – H4 neuroglioma cells, luminescence, confirmation (AID 1988); assay type: functional, cell-based
[12] = luciferase reporter signal suppression in cells – H4 neuroglioma cells, luminescence, dose response (AID 1990); assay type: functional, cell-based
[13] = Luminescence Cell-Based Dose Response HTS to Identify Inhibitors of 5'UTR Stem-Loop Driven Prion Protein mRNA Translation in H4 Neuroglioblastoma Cells. [Related pubchem assays: 1827 (Project Summary), 1813 (Primary HTS)]; assay type: functional
[14] = molecular target: Cytochrome P450 3A4 (Homo sapiens, UniProt P08684); settings: Potency;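 also: confirmatory qHTS run detecting inhibitors and substrates of CYP3A4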
Cytochrome P450 3A4, sequence (P08684 whole entry): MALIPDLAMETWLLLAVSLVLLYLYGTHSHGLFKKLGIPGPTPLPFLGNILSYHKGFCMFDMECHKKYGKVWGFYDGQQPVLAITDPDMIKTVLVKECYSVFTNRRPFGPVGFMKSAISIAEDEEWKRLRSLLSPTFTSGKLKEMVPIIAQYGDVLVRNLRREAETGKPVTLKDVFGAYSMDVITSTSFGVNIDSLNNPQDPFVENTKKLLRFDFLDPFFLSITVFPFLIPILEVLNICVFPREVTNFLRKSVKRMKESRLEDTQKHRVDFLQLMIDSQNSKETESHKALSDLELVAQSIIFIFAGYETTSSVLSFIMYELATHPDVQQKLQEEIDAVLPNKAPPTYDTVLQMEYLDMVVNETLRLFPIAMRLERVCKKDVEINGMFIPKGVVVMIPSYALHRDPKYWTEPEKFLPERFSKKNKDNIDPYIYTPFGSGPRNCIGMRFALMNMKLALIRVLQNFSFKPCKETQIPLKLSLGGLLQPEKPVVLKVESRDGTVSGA

FAD-linked sulfhydryl oxidase ALR, sequence (P55789 whole entry): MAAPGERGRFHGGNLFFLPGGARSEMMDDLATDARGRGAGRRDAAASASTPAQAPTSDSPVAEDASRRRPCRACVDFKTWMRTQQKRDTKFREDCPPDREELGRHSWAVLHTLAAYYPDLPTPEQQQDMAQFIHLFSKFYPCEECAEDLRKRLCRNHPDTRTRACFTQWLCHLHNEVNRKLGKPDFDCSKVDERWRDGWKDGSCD
Induced myeloid leukemia cell differentiation protein Mcl-1, sequence (Q07820 whole entry): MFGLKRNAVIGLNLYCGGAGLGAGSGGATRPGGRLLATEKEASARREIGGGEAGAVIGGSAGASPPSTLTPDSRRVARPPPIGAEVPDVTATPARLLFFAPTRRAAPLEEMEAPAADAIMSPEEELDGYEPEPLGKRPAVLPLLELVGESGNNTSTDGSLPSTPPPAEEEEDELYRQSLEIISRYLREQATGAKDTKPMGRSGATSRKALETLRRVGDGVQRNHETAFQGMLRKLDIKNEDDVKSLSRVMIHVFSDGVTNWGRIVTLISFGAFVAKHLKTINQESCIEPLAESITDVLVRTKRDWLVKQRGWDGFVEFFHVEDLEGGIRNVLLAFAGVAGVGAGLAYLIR
Large T antigen, sequence (P03070 whole entry): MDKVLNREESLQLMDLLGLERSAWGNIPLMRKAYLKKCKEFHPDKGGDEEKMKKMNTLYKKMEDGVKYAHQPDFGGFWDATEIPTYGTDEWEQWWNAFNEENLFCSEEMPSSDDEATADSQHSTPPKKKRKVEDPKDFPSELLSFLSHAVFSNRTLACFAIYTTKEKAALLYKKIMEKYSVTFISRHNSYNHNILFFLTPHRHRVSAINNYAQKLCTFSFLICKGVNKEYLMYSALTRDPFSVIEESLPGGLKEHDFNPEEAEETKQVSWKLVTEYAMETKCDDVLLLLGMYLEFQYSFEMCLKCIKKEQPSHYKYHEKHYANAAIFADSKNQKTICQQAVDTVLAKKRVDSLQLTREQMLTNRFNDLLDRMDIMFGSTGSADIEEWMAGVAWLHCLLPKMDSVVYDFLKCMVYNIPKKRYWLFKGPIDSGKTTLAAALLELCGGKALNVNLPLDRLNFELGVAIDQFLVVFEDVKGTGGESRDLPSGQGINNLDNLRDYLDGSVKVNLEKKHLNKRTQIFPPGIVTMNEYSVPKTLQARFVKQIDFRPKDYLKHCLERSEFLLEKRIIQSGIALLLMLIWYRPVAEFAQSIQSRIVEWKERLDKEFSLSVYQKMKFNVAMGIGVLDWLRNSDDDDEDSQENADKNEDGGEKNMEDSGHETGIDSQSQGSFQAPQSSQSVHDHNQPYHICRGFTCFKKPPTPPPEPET
Genome polyprotein, sequence (P29990 2492-3391 limits assumed): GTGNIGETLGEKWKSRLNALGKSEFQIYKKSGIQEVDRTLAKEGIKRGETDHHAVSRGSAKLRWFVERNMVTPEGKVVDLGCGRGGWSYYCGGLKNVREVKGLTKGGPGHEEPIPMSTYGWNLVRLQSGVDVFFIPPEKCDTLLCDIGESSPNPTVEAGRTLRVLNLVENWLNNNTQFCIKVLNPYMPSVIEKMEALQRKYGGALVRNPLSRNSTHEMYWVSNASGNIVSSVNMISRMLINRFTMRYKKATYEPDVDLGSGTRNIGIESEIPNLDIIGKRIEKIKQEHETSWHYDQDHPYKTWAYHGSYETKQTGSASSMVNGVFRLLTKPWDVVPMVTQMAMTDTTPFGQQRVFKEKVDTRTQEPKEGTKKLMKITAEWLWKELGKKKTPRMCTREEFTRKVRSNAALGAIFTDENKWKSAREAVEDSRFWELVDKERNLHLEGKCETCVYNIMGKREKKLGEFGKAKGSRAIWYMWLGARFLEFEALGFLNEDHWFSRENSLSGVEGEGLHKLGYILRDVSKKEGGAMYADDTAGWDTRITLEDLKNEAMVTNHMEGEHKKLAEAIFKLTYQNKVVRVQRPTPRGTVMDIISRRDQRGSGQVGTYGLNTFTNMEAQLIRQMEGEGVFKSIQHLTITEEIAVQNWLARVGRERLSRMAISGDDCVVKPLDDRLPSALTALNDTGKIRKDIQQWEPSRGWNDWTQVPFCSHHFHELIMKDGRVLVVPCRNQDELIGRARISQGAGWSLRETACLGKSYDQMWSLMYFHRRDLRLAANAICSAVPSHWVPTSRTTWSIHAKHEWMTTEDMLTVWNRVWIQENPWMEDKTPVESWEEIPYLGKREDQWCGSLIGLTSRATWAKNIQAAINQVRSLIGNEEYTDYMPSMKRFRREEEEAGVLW

With CC(=O)c1sc2nc(-c3cccs3)ccc2c1N the IC50 [1] was 7.08 µM (not active), the EC50 [2] was 33.2 µM (inconclusive) and the EC50 [3] was > 120 µM (not active).
For Cc1cc(C)c(NC(=O)Cn2cc3c(n2)CCCC3)c(C)c1, the IC50 [4] was 20.5 µM (not active).
With CCS(=O)(=O)N1Cc2ccccc2CC1C(=O)N1CCN(c2ccccc2)CC1 (stereo not given) the AC50 [5] was 12.1 µM (active).
In the case of COC(=O)c1ccc(COC(=O)c2ccccn2)cc1, the IC50 [6] is reported as 26.6 µM (active).
With COc1ccc(OC)c(C(=O)N2CCCC(Nc3ccc(F)cc3)C2)c1 (stereo not given) the AC50 [5] was 1.92 µM (active).
For CN(C)c1ccc(NC(=O)CN2CCN(CC(=O)Nc3ccc(F)cc3)CC2)cc1, the IC50 [7] was 17.2 µM (active).
For CCCCCc1c2c(cc(O)c1C(=O)O)OC(=O)c1cc(C(=O)CCCC)c(OC)cc1O2, the IC50 [8] was 39 µM (active).
In the case of COc1ccc(C(CC(=O)N2CCN(c3ccccc3)CC2)c2c(OC)cc(OC)c3ccc(=O)oc23)cc1 (stereo not given), the IC50 [9] is reported as 11.4 µM (active).
For CCOC(=O)c1cnc(SC)nc1Oc1cccc(NC(=O)c2cccc(Cl)c2Cl)c1, the IC50 [9] was > 79 µM (inactive).
For Cc1ccc(C(=O)Nc2nc(-c3ccc([N+](=O)[O-])cc3)cs2)o1, the AC50 [5] was 0.675 µM (active).
For O=C(CCCn1c(SCC(=O)c2ccc(O)c(O)c2)nc2ccccc2c1=O)NCC1CCCO1 (stereo not given), the IC50 [9] was 17.4 µM (active).
For CC(=O)Nc1c(O)nc(SCC(=O)Nc2cccc(C)c2)[nH]c1=O, the IC50 [10] was 9.85 µM (active).
With Cn1c(=O)c(C(=O)COC(=O)c2cc(-c3ccco3)nc3ccccc23)c(N)n(CC2CC2)c1=O the IC50 [1] was 1.99 µM (active).
For Cn1c(NCc2ccccc2)nc2c1c(=O)n(Cc1ccc(Br)cc1)c(=O)n2C, the EC50 [11] was 12.4 µM (active), the IC50 [4] was 5.48 µM (active) and the EC50 [12] was 13.5 µM (active). For the same compound, the EC50 [13] was 18 µM (active).
For Cc1nc(Nc2ccccc2)c2nc(-c3ccccc3)n(CCCN3CCCCC3C)c2n1 (stereo not given), the AC50 [14] was 12.6 µM (inconclusive).
In the case of c1csc(-c2nc3ccccn3c2NC2CCCCC2)c1, the AC50 [5] is reported as 0.678 µM (active).
For CCCOc1ccc(NC(=O)C2CC(=O)N(C(C)C)C2)cc1 (stereo not given), the IC50 [10] was 99.7 µM (active).
With CC1CCN(C(=O)COC(=O)c2cc3ccccc3cc2O)CC1 the IC50 [6] was 0.9 µM (active).
In the case of COc1ccccc1N1CCN(C(=O)c2ccc(CSc3ccccc3)cc2)CC1, the IC50 [4] is reported as 8.99 µM (not active).
With COc1ccc(CCNC(=O)c2cc(C(=O)c3cc(C)ccc3O)cn(CCc3ccc(OC)cc3)c2=O)cc1 the IC50 [9] was > 79 µM (inactive).
